From the NIST ThermoML archive (doi:10.1021/je101302p)
Numbers after ± are expanded uncertainties.

Conditions: Liquid; for mass density: 298.15 K, 101.33 kPa, Vibrating tube method

## CCC(=O)O [propanoic acid]
  mass density: 993.722 ± 0.3 kg/m3
414.53 K
  vapor or sublimation pressure: 101.3 ± 3.4 kPa

## CCCOC(=O)CC [propyl propanoate]
  mass density: 881.619 ± 0.3 kg/m3
395.1 K
  vapor or sublimation pressure: 101.3 ± 1.7 kPa

## CCCO [propan-1-ol]
  mass density: 804.269 ± 0.19 kg/m3
370.29 K
  vapor or sublimation pressure: 101.3 ± 3.4 kPa
